# Entries after “also recorded” stand apart in the source; their conditions may differ.
# Experiments:
# [1] = target: GFP-fused multimerized CBP bromodomain (Homo sapiens, UniProt Q92793); experiment: FRAP assay in U2OS cells, GFP-fused CBP bromodomain; type: cell-based; settings: compound 1 μM, 2.5 μM SAHA
# [2] = test system: MRC5 nontransformed fibroblast; experiment: Cell proliferation, resazurin assay; type: cell-based; settings: Homo sapiens, MRC5, 72 h, read-out: GI50 MRC5
# HL-60 cells = experiment: Cell proliferation, resazurin assay; type: cell-based; settings: 144 h
# bromodomain of CBP = bromodomain of CBP (Homo sapiens, UniProt Q92793); experiment: Alpha Screen assay; type: binding
# Kasumi cells = experiment: Cell proliferation, resazurin assay; type: cell-based, human; settings: 72 h or 144 h
# LP1 cells = experiment: Cell proliferation, resazurin assay; type: cell-based, human; settings: 72 h or 144 h
# IRF4 mRNA = experiment: RT-qPCR mRNA transcription in LP1 cells; type: cell-based, human; settings: 6 h incubation, dose-response
# c-MYC mRNA = experiment: RT-qPCR mRNA transcription in LP1 cells; type: cell-based, human; settings: 6 h incubation, dose-response
smiles,measurement,setting,value
CCOc1ccc(C(C)=O)cc1-c1ccc(N2CCCS2(=O)=O)cc1C [Compound 13],displacement of GFP-fused CBP bromodomain from chromatin (FRAP),[1],significant displacement
CCOc1ccc(C(C)=O)cc1NC(=O)c1ccc(C)c(NC(=O)c2ccco2)c1 [Compound 7],displacement of GFP-fused CBP bromodomain from chromatin (FRAP),[1],significant displacement
CCOc1ccc(C(C)=O)cc1NC(=O)Cc1csc(-c2ccc(OC)c(OC)c2)n1 [Compound 6],displacement of GFP-fused CBP bromodomain from chromatin (FRAP),[1],significant displacement
CCOc1ccc(C(C)=O)cc1NC(=O)c1cc(NC(C)=O)cc(NC(=O)c2ccc(OC)c(OC)c2)c1 [Compound 17],displacement of GFP-fused CBP bromodomain from chromatin (FRAP),[1],significant displacement
CCOc1ccc(C(C)=O)cc1NC(=O)c1cc(NC(C)=O)cc(NC(=O)c2ccco2)c1 [Compound 16],displacement of GFP-fused CBP bromodomain from chromatin (FRAP),[1],significant displacement; also recorded: strongest effect
same,GI50,[2],> 20 µM
same,proliferation of HL-60 cells,HL-60 cells,selectively inhibited the proliferation
same,affinity for CBP bromodomain higher by a factor with respect to BRD4(1),bromodomain of CBP,"more than 10,000"
same,proliferation of Kasumi cells,Kasumi cells,selectively inhibited the proliferation
same,proliferation of LP1 cells,LP1 cells,selectively inhibited the proliferation
same,IRF4 mRNA level,IRF4 mRNA,reduced
same,c-MYC mRNA level,c-MYC mRNA,reduced

# Source: paper PMC5833004 (ACS Central Science, 2018)
